Assay results as given in ChEMBL document CHEMBL4819127, “Syntheses and antimicrobial activities of ogipeptin derivatives” (Bioorg Med Chem Lett, 2021).
In brackets after ≈: the same amount, converted by molar mass. Activity calls are given as the source filed them. The rule behind the calls is not given here.

Columns and labels:
[1] = test system: HEK293; experiment: (§1) Cytotoxicity against HEK293 cells; assay type: cell-based; details: human, hek293
[2] = as §1; assay type: cell-based; details: human, HEK293 cells
[3] = test system: Pseudomonas aeruginosa; experiment: Antibacterial activity against Pseudomonas aeruginosa ATCC 15692 assessed as bacterial growth inhibition; assay type: functional
[4] = test system: Klebsiella pneumoniae; experiment: Antibacterial activity against Klebsiella pneumoniae JCM 1662 assessed as bacterial growth inhibition; assay type: functional
[5] = Lipophilicity, logD of compound; assay type: physicochemical; details: octanol/water
[6] = test system: Escherichia coli; experiment: Antibacterial activity against Escherichia coli ATCC 47076 assessed as bacterial growth inhibition; assay type: functional
[7] = test system: Acinetobacter baumannii; experiment: Antibacterial activity against Acinetobacter baumannii ATCC 19606 assessed as bacterial growth inhibition; assay type: functional; details: ATCC 19606 = CIP 70.34 = JCM 6841
[8] = test system: Klebsiella pneumoniae; experiment: Antibacterial activity against Klebsiella pneumoniae ATCC 700721 assessed as bacterial growth inhibition; assay type: functional
[9] = test system: Acinetobacter baumannii; experiment: Antibacterial activity against Acinetobacter baumannii IHMA 1312713 assessed as bacterial growth inhibition; assay type: functional
[10] = test system: HepG2; experiment: Cytotoxicity against human HepG2 cells; assay type: functional
[11] = test system: Klebsiella pneumoniae; experiment: Antibacterial activity against Klebsiella pneumoniae ATCC 10031 assessed as bacterial growth inhibition; assay type: functional
[12] = test system: Klebsiella pneumoniae; experiment: Antibacterial activity against Klebsiella pneumoniae IHMA 1387833 assessed as bacterial growth inhibition; assay type: functional
[13] = test system: Pseudomonas aeruginosa; experiment: Antibacterial activity against Pseudomonas aeruginosa ATCC 27853 assessed as bacterial growth inhibition; assay type: functional
[14] = test system: Pseudomonas aeruginosa; experiment: Antibacterial activity against Pseudomonas aeruginosa IHMA 1375891 assessed as bacterial growth inhibition; assay type: functional
[15] = test system: Escherichia coli; experiment: Antibacterial activity against Escherichia coli; assay type: functional, organism-based
[16] = test system: Klebsiella pneumoniae; experiment: Antibacterial activity against Klebsiella pneumoniae; assay type: functional, organism-based
[17] = test system: Acinetobacter; experiment: Antibacterial activity against Acinetobacter sp.; assay type: functional, organism-based
[18] = test system: Pseudomonas aeruginosa; experiment: Antibacterial activity against multidrug resistance Pseudomonas aeruginosa; assay type: functional, organism-based

Row | Molecule | CC50 [1] [µM] | CC50 [2] [µM] | MIC [3] [µg/mL] | MIC [4] [µg/mL] | logD [5] | MIC [6] [µg/mL] | MIC [7] [µg/mL] | MIC [8] [µg/mL] | MIC [9] [µg/mL] | CC50 [10] [µM] | MIC [11] [µg/mL] | MIC [12] [µg/mL] | MIC [13] [µg/mL] | MIC [14] [µg/mL] | Activity [15] | Activity [16] | Activity [17] | Activity [18]
1 | COLISTIN | > 64 | – | – | – | – | – | – | – | – | – | – | – | – | – | – | – | – | –
2 | C/C=C1\NC(=O)C(NC(=O)c2ccc(Oc3ccccc3CCCC)cc2)C(O)CNC(=O)C(C(O)CN)NC(=O)C(C(O)CN)NC(=O)[C@H](CCCNC(=N)N)NC(=O)[C@H](CC(C)C)NC(=O)[C@H](CCN)NC1=O (stereo partly drawn) | – | > 64 | 64 (≈ 60.8 µM) | 4 (≈ 3.8 µM) | 4.984 | 2 (≈ 1.9 µM) | 2 (≈ 1.9 µM) | 4 (≈ 3.8 µM) | 8 (≈ 7.6 µM) | > 64 | 4 (≈ 3.8 µM) | > 256 | 4 (≈ 3.8 µM) | 64 (≈ 60.8 µM) | – | – | – | –
3 | C/C=C1\NC(=O)C(NC(=O)CCC/C=C\CCCCCC)C(O)CNC(=O)C(C(O)CN)NC(=O)C(C(O)CN)NC(=O)[C@H](CCCNC(=N)N)NC[C@H](CC(C)C)NC(=O)[C@H](CCN)NC1=O (stereo partly drawn) | – | – | – | – | – | – | – | – | – | – | – | – | – | – | Active | inactive | inactive | Active
4 | C/C=C1\NC(=O)C(NC(=O)CCCCCCCCC)C(O)CNC(=O)C(C(O)CN)NC(=O)C(C(O)CN)NC(=O)[C@H](CCCNC(=N)N)NC(=O)[C@H](CC(C)C)NC(=O)[C@H](CCN)NC1=O (stereo partly drawn) | – | > 64 | 64 (≈ 67 µM) | > 256 | 3.756 | 2 (≈ 2.09 µM) | 2 (≈ 2.09 µM) | > 256 | > 256 | > 64 | 1 (≈ 1.05 µM) | > 256 | 4 (≈ 4.19 µM) | 128 (≈ 134 µM) | – | – | – | –
5 | C/C=C1\NC(=O)C(NC(=O)c2cc3cc(Cl)ccc3o2)C(O)CNC(=O)C(C(O)CN)NC(=O)C(C(O)CN)NC(=O)[C@H](CCCNC(=N)N)NC(=O)[C@H](CC(C)C)NC(=O)[C@H](CCN)NC1=O (stereo partly drawn) | – | > 64 | > 256 | > 256 | 2.829 | 2 (≈ 2.04 µM) | 2 (≈ 2.04 µM) | 8 (≈ 8.17 µM) | 256 (≈ 261 µM) | > 64 | 2 (≈ 2.04 µM) | > 256 | 4 (≈ 4.08 µM) | > 256 | – | – | – | –
6 | C/C=C1\NC(=O)C(NC(=O)COc2ccc(/C=C/C(=O)OC(C)(C)C)cc2)C(O)CNC(=O)C(C(O)CN)NC(=O)C(C(O)CN)NC(=O)[C@H](CCCNC(=N)N)NC(=O)[C@H](CC(C)C)NC(=O)[C@H](CCN)NC1=O (stereo partly drawn) | – | > 64 | 8 (≈ 7.54 µM) | > 256 | 2.65 | 2 (≈ 1.88 µM) | 2 (≈ 1.88 µM) | 2 (≈ 1.88 µM) | 128 (≈ 121 µM) | > 64 | 2 (≈ 1.88 µM) | > 256 | 4 (≈ 3.77 µM) | 128 (≈ 121 µM) | – | – | – | –
7 | C/C=C1\NC(=O)C(NC(=O)CCCCCCCCC)C(O)CNC(=O)C(C(O)CN)NC(=O)C(C(O)CN)NC(=O)[C@H](CCCNC(=N)N)NC[C@H](CC(C)C)NC(=O)[C@H](CCN)NC1=O (stereo partly drawn) | – | – | – | – | – | – | – | – | – | – | – | – | – | – | Active | inactive | inactive | Active
8 | C/C=C1\NC(=O)C(NC(=O)c2ccc(NS(=O)(=O)Cc3ccccc3)cc2)C(O)CNC(=O)C(C(O)CN)NC(=O)C(C(O)CN)NC(=O)[C@H](CCCNC(=N)N)NC(=O)[C@H](CC(C)C)NC(=O)[C@H](CCN)NC1=O (stereo partly drawn) | – | > 64 | > 256 | > 256 | – | 16 (≈ 14.9 µM) | > 256 | > 256 | > 256 | > 64 | 128 (≈ 119 µM) | > 256 | 256 (≈ 238 µM) | > 256 | – | – | – | –
9 | C/C=C1\NC(=O)C(NC(=O)CCc2nc(-c3ccc(OC)cc3)no2)C(O)CNC(=O)C(C(O)CN)NC(=O)C(C(O)CN)NC(=O)[C@H](CCCNC(=N)N)NC(=O)[C@H](CC(C)C)NC(=O)[C@H](CCN)NC1=O (stereo partly drawn) | – | > 64 | > 256 | > 256 | – | 2 (≈ 1.94 µM) | 8 (≈ 7.76 µM) | 2 (≈ 1.94 µM) | > 256 | > 64 | 2 (≈ 1.94 µM) | > 256 | 8 (≈ 7.76 µM) | > 256 | – | – | – | –
10 | C/C=C1\NC(=O)C(NC(=O)CCCCCCCCCCC)C(O)CNC(=O)C(C(O)CN)NC(=O)C(C(O)CN)NC(=O)[C@H](CCCNC(=N)N)NC[C@H](CC(C)C)NC(=O)[C@H](CCN)NC1=O (stereo partly drawn) | – | – | – | – | – | – | – | – | – | – | – | – | – | – | Active | inactive | inactive | Active
11 | C/C=C1\NC(=O)C(NC(=O)CCCCC/C=C\CCCCCC)C(O)CNC(=O)C(C(O)CN)NC(=O)C(C(O)CN)NC(=O)[C@H](CCCNC(=N)N)NC[C@H](CC(C)C)NC(=O)[C@H](CCN)NC1=O (stereo partly drawn) | – | – | – | – | – | – | – | – | – | – | – | – | – | – | Active | inactive | inactive | Active
